In article PMC12040169 (PLOS Biology, 2025) one finds viability data, which are given here for 80 compounds.

A short description of the series: in vitro. The note with it: human, hela cells, % viability.
As a reminder, the viability is a read-out of living cells in per cent, often relative to untreated cells. As for `Cc1cc(C)nc(NC(=O)OCc2cc(C)nc(C)c2)c1` [CBK138231], the viability at 28.5 h, 10 µM was found to be 87.9%.
Under `Cc1cc(C)nc(NC(=O)OCCc2ccncc2)c1` [CBK138233] stands 93.9%; under `Cc1cc(COC(=O)Nc2cccnc2)cc(C)n1` [CBK138236], 83.6%.
For `NC(=O)CN1CCC(Cc2ccccc2)CC1` [CBK138319], the viability at 28.5 h, 10 µM was determined as 109%.
Under `NC(=O)CCN1CCc2ccccc2C1` [CBK138325] stands 88.3%; under `O=C(CN1CCCc2ccccc21)c1ccsc1` [CBK138333], 91.5%; under `COc1ccc(Cl)cc1N1CCN(CCCn2c(=O)[nH]c3ccccc32)CC1` [CBK138338], 95.7%.
`COc1ccc(Cl)cc1N1CCN(CCO)CC1` [CBK138339]: the viability at 28.5 h, 10 µM was 88.7%.
For `CC(C)(C)OC(=O)N1CCCN(c2ccc(S(=O)(=O)c3ccccc3)c([N+](=O)[O-])c2)CC1` [CBK138502], the viability at 28.5 h, 10 µM worked out at 99.2%.
With `O=C(c1ccc(-c2cncc(-c3ccc(Cl)s3)n2)cc1)N1CCOCC1` [CBK138517], the viability at 28.5 h, 10 µM was determined as 92.2%.
In the case of `CC(C)(C)OC(=O)n1cccc1-c1cncc(-c2ccc(C(=O)N3CCOCC3)cc2)n1` [CBK138520] it was 100%.
In the case of `O=C(Nc1cccc2ccccc12)C1CCCN1S(=O)(=O)c1ccc(F)cc1` (centres unmarked) [CBK138924], the viability at 28.5 h, 10 µM came out at 97.8%.
As to `O=C(Nc1cccc2ccccc12)C1CCCN1S(=O)(=O)c1ccc(Cl)cc1` (centres unmarked) [CBK138930], the viability at 28.5 h, 10 µM was 92.9%.
In the case of `COCCn1c(SCCC(=O)O)nc2c1c(=O)[nH]c(=O)n2C` [CBK139751], the viability at 28.5 h, 10 µM is 82%.
In the case of `Cc1ccc(CNc2nc3c(c(=O)[nH]c(=O)n3C)n2CC(O)COC(C)C)cc1` (centres unmarked) [CBK139849] it was 87.3%; in that of `COCCSc1nc2c(c(=O)[nH]c(=O)n2C)n1CCCc1ccccc1` [CBK140504], 90.9%.
For `CN(C)c1nc2c(c(=O)[nH]c(=O)n2C)n1Cc1cccc2ccccc12` [CBK140560], the viability at 28.5 h, 10 µM is 90.1%.
As for `CN(C)Cc1nc2c([nH]1)c(=O)n(C)c(=O)n2C` [CBK140662], the viability at 28.5 h, 10 µM came to 99.8%.
For the compound `CC(C)OCC(O)Cn1c(NC2CCCCC2)nc2c1c(=O)[nH]c(=O)n2C` (centres unmarked) [CBK140893], the viability at 28.5 h, 10 µM came out at 107%.
In the case of `COc1ccc(OC)c(-n2c(C)cn3c4c(=O)[nH]c(=O)n(C)c4nc23)c1` [CBK141314] it was 59.5%; in that of `COc1cccc(C(c2nnnn2C(C)(C)C)N2CCN(c3cccc(Cl)c3)CC2)c1` (centres unmarked) [CBK141669], 112%; in that of `COc1ccccc1OCCSc1nnnn1C1CCCCC1` [CBK141884], 96.6%.
Regarding `COc1cc(C(c2nnnn2C2CCCCC2)N2CCN(C)CC2)cc(OC)c1OC` (centres unmarked) [CBK142338C], the viability at 28.5 h, 10 µM came to 98.3%.
In the case of `CC(C)(C)OC(=O)N1CCN(S(=O)(=O)c2ccc(Br)cc2)CC1` [CBK143623], the viability at 28.5 h, 10 µM came to 91.8%.
For the compound `O=S(=O)(c1ccccc1)n1c(CO)cc2c(C(F)(F)F)cc(CN3CCNCC3)cc21` [CBK143799], the viability at 28.5 h, 10 µM came to 97.7%.
With `O=C(NC1CCCC1)c1ccncc1` [CBK143916], the viability at 28.5 h, 10 µM worked out at 117%.
Under `CCNC(=O)N1CC2(CCN(CC3COc4ccccc4O3)CC2)c2ccccc21` (centres unmarked) [CBK143944] stands 102%.
Under `CCNC(=O)N1CC2(CCN(CCn3cccc3)CC2)c2ccccc21` [CBK143945] stands 93%.
Under `O=C(CO)N1CC2(CCN(CCn3cccc3)CC2)c2ccccc21` [CBK143953] stands 86.9%; under `OCCN1CC2(CCN(CC3CCCO3)CC2)c2ccccc21` (centres unmarked) [CBK143959], 90.8%.
For `O=C1NC(=O)C(CCCCN2CCCc3ccccc32)N1` (centres unmarked) [CBK143965], the viability at 28.5 h, 10 µM turned out to be 98.3%.
Under `CCCCN1CCN(S(=O)(=O)c2ccc(Br)cc2)CC1` [CBK144055] stands 99.1%; under `CS(=O)(=O)c1ccc(CN2C(=O)CC3(CCN(Cc4ccccc4)CC3)C2=O)cc1` [CBK144065T], 108%; under `Cc1onc(-c2ccccc2)c1CNC(=O)c1ccc(OC(F)(F)F)cc1` [CBK144080], 97.9%.
Turning to `Cc1onc(-c2ccccc2)c1CNC(=O)/C=C/c1ccc2c(c1)OCO2` [CBK144085], the viability at 28.5 h, 10 µM turned out to be 95%.
Under `Cc1onc(-c2ccccc2)c1CNC(=O)c1cscn1` [CBK144089] stands 97.1%; under `Cc1onc(-c2ccccc2)c1CNC(=O)c1cccnc1` [CBK144100], 111%; under `CN1CCC[C@H]1C(=O)Nc1nc2c(s1)C(=O)CC(C)(C)C2` [CBK144101], 98.8%.
`CC1(C)CC(=O)c2sc(NC(=O)c3ccc(OC(F)(F)F)cc3)nc2C1` [CBK144102]: the viability at 28.5 h, 10 µM is 109%.
Under `CC1(C)CC(=O)c2sc(NC(=O)Cc3ccc(Cl)c(Cl)c3)nc2C1` [CBK144103] stands 93.7%; under `CC1(C)CC(=O)c2sc(NC(=O)c3ccc4ncccc4c3)nc2C1` [CBK144105], 92.2%.
As to `CC1CCN(Cc2ccc(-c3nnn(CC(=O)NCc4ccc(S(N)(=O)=O)cc4)n3)cc2)CC1` [CBK144141C], the viability at 28.5 h, 10 µM is 93.3%.
For `COc1cccc(CNC(=O)Cn2nnc(-c3ccc(CN4CCC(C)CC4)cc3)n2)c1OC` [CBK144161C], the viability at 28.5 h, 10 µM stood at 94.1%.
As for `COc1cc(CNC(=O)Cn2nnc(-c3ccc(CN4CCC(C)CC4)cc3)n2)cc(OC)c1OC` [CBK144170C], the viability at 28.5 h, 10 µM came out at 96.5%.
Under `CC1CCN(Cc2ccc(-c3nnn(CC(=O)NCc4ccc(Cl)cc4Cl)n3)cc2)CC1` [CBK144180C] stands 96.5%; under `O=C(c1ccco1)N1CCN(C(=O)C(c2ccccc2)c2ccccc2)CC1` [CBK144462], 88.9%; under `COc1ccccc1OCC(=O)N1CCN(C(=O)c2ccco2)CC1` [CBK144466], 86.8%.
In the case of `O=C(c1cc[nH]c1)N1CCN(C(=O)c2ccco2)CC1` [CBK144467] it was 90%; in that of `Cc1ccc(S(=O)(=O)CC(=O)N2CCN(C(=O)c3ccco3)CC2)cc1` [CBK144469], 87.1%; in that of `COc1cc(C(=O)N2CCN(C(=O)c3ccco3)CC2)cc(OC)c1OC` [CBK144476], 113%.
In the case of `O=C(c1cncnc1)N1CCN(C(=O)c2ccco2)CC1` [CBK144477], the viability at 28.5 h, 10 µM worked out at 104%.
Under `O=C(CN1CCOCC1)N1CCN(C(=O)c2ccco2)CC1` [CBK144478] stands 99.2%.
Under `O=C(c1ccco1)N1CCN(C(=O)c2c(F)cccc2F)CC1` [CBK144479] stands 86.3%; under `O=C(c1ccc2c(c1)OCCO2)N1CCN(C(=O)c2ccco2)CC1` [CBK144480], 101%.
As to `O=C(COc1cccnc1)N1CCN(C(=O)c2ccco2)CC1` [CBK144482], the viability at 28.5 h, 10 µM came out at 96.7%.
Consider `N#Cc1cccc(C(=O)N2CCN(c3ncccn3)CC2)c1` [CBK144498], for which the viability at 28.5 h, 10 µM was found to be 82.2%.
Take `O=C(COc1ccc(F)cc1)N1CCN(c2ncccn2)CC1` [CBK144499]: the viability at 28.5 h, 10 µM amounted to 94.1%.
Under `O=C(c1ccc2ncccc2c1)N1CCN(c2ncccn2)CC1` [CBK144503] stands 87.9%; under `O=C(C(c1ccccc1)c1ccccc1)N1CCN(c2ncccn2)CC1` [CBK144504], 89.4%.
In the case of `O=C(c1cscn1)N1CCN(c2ncccn2)CC1` [CBK144506] it was 87.9%; in that of `CSCCC(=O)N1CCN(c2ncccn2)CC1` [CBK144509], 90.3%; in that of `CN1CCC(C(=O)N2CCN(c3ncccn3)CC2)CC1` [CBK144511], 102%.
Consider `O=C(c1cncnc1)N1CCN(c2ncccn2)CC1` [CBK144515], for which the viability at 28.5 h, 10 µM came out at 88%.
In the case of `O=C(c1cccnc1)N1CCN(c2ncccn2)CC1` [CBK144516] it was 95.4%; in that of `O=C(c1c(F)cccc1F)N1CCN(c2ncccn2)CC1` [CBK144517], 89.3%.
Regarding `O=C(c1ccc2c(c1)OCCO2)N1CCN(c2ncccn2)CC1` [CBK144519], the viability at 28.5 h, 10 µM stood at 89.5%.
With `O=C(COc1cccnc1)N1CCN(c2ncccn2)CC1` [CBK144521], the viability at 28.5 h, 10 µM stood at 86.5%.
As for `O=C(Cc1c[nH]cn1)N1CCN(c2ncccn2)CC1` [CBK144527], the viability at 28.5 h, 10 µM worked out at 105%.
Under `CN1CCC[C@H]1C(=O)N1CCN(c2ncccn2)CC1` [CBK144528] stands 93.4%.
Turning to `O=C(CC1CCCCC1)N1CCN(c2ncccn2)CC1` [CBK144529], the viability at 28.5 h, 10 µM came out at 102%.
Take `CC(C)(N)CC(=O)N1CCN(c2ncccn2)CC1` [CBK144532]: the viability at 28.5 h, 10 µM turned out to be 91.3%.
Under `Cc1ccc(CNC(=O)Cn2nnc(-c3ccc(CN4CC(C)OC(C)C4)cc3)n2)cc1` (centres unmarked) [CBK144554C] stands 64.2%.
For `CSc1ccccc1CNC(=O)Cn1nnc(-c2ccc(CN3CCC(C)CC3)cc2)n1` [CBK144573C], the viability at 28.5 h, 10 µM came to 93.2%.
On to `CC1CCN(Cc2ccc(-c3nnn(CC(=O)NCc4ccc(NS(C)(=O)=O)cc4)n3)cc2)CC1` [CBK144588C], for which the viability at 28.5 h, 10 µM was found to be 90.3%.
In the case of `CCNC(=O)N1CC2(CCN(C/C=C/c3ccccc3)CC2)c2ccccc21` [CBK144596T] it was 97.6%; in that of `CCNC(=O)N1CC2(CCN(CCOc3ccc(OC)cc3)CC2)c2ccccc21` [CBK144600T], 98.4%.
In the case of `CC(C)C(=O)N1CC2(CCN(Cc3cc(=O)[nH]c(=O)[nH]3)CC2)c2ccccc21` [CBK144602T] it was 107%; in that of `Cc1cc(NCCc2ccc(=O)[nH]c2)nc(-c2cc(F)c(F)cc2F)n1` [CBK144636C], 99.3%; in that of `O=C(OCc1ccccc1)N1CCC(C2OCc3cc(-c4cccc5ncccc45)ccc3O2)CC1` (centres unmarked) [CBK144644], 94.8%.
As to `O=C(Nc1ccc2[nH]ccc2c1)c1c(F)cccc1F` [CBK144711], the viability at 28.5 h, 10 µM came out at 95.9%.
